# Data: patent publication US20060252774A1, “Regulation of type 5 adenylyl cyclase for treatment of neurodegenerative and cardiac diseases” (priority 2002, published 2006)
# Legend:
# [1] = tested on: WT and AC5KO mice; test: Locomotor activity test with dopaminergic agonists; type: in vivo, mouse; conditions: subcutaneous, SKF38393 25 or 50 mg/kg, cabergoline 0.2 or 1.0 mg/kg
# Description: FIG. 27. Motor dysfunction in ACD-^−/− mice. Rotarod test (A)—Each mouse was placed on a 3.5-cm diameter rod covered with rubber to evaluate rotarod performance (14). Mice were left for 1 minute on the rod for habituation. The rod rotated gradually increasing from 4 to 40 rpm over the course of 5 min and the time that mice could stay on an accelerating rotarod without failing was recorded. Five trials were conducted for each individual 10-25 min apart within the dark phase of the light/dark cycle. Mice that stayed on the rotarod for >300 sec were considered complete responders, and their latencies were recorded as 300 sec. *p<0.05, relative to ^+/+; ^+/−, n=17-20. […] Locomotor activity (B) was assessed using an activity monitor equipped with photocell beams (Columbus Instruments, Ohio, USA). The number of photobeam interruptions in each perpendicular axis was recorded and totaled for 5 min. The behavior of the mice was recorded simultaneously by video camera for later analysis, and their rearing actions were counted (C). *p<0.05, relative to ^+/+, n=15-20. […] The time until it turned completely downward (open bars, Tturn) and the time until it climbed down to the floor (closed bars, TLA) were measured *p<0.01, relative to ^+/+, n=14-17. […]
# FIG. 32. […] In rotarod test, the best performance out of five trials in each individual was evaluated. […]
# [2] = tested on: WT and AC5KO mice; test: Rotarod test with dopaminergic agonists; type: in vivo, mouse; conditions: subcutaneous, 0.2 or 1.0 mg/kg
# Description: (§1) FIG. 27. Motor dysfunction in ACD-^−/− mice. Rotarod test (A)—Each mouse was placed on a 3.5-cm diameter rod covered with rubber to evaluate rotarod performance (14). Mice were left for 1 minute on the rod for habituation. The rod rotated gradually increasing from 4 to 40 rpm over the course of 5 min and the time that mice could stay on an accelerating rotarod without failing was recorded. Five trials were conducted for each individual 10-25 min apart within the dark phase of the light/dark cycle. Mice that stayed on the rotarod for >300 sec were considered complete responders, and their latencies were recorded as 300 sec. *p<0.05, relative to ^+/+; ^+/−, n=17-20. Activity tests (B and C)—The tests were performed as previously described (14, 15). Mice were put in the darkened testing room 60 minutes for habituation before testing. Locomotor activity (B) was assessed using an activity monitor equipped with photocell beams (Columbus Instruments, Ohio, USA). The number of photobeam interruptions in each perpendicular axis was recorded and totaled for 5 min. The behavior of the mice was recorded simultaneously by video camera for later analysis, and their rearing actions were counted (C). *p<0.05, relative to ^+/+, n=15-20. Pole test (D)—In order to evaluate bradykinesia, pole test was performed (16). In brief, mice were placed head upward on the top of a rough-surfaced pole (8 mm in diameter and 50 cm in height) that was wrapped with gauze to prevent slipping. The time until it turned completely downward (open bars, Tturn) and the time until it climbed down to the floor (closed bars, TLA) were measured *p<0.01, relative to ^+/+, n=14-17. Means±SEM are shown. Homozygous to (ACD^−/−) (closed circles, ^−/−), heterozygous (shaded circles, ^+/−), and wild type (WT) (open circles, ^+/+).
# (§2) FIG. 32. Effect of dopaminergic agonists on motor functions Effects of SKF38393 on locomotor activity (A), rotarod test (B), and pole test (C) were compared. […] In rotarod test, the best performance out of five trials in each individual was evaluated. […]
# [3] = tested on: WT and AC5KO mice; test: Pole test with dopaminergic agonists; type: in vivo, mouse
# Description: as §1, §2
# [4] = tested on: cardiac AC; test: AC assay in heart membrane preparations; type: biochemical, mouse; conditions: 100 μmol/L ISO + 100 μmol/L GTP
# Description: FIG. 17: Adrenergic, muscarinic, and Ca^2+-mediated regulation of cardiac AC activity. A, AC activity in vitro. The steady state AC activity was determined as the maximal cAMP production over 15 min. Stimulation was performed at the level of the β-AR (ISO), G-protein (GTPγS) and AC catalytic unit with forskolin (Fsk). *P<0.01, n=5. B, Effects of carbachol on AC activity. AC was preactivated by ISO. AC activity was then determined in the absence and presence of carbachol. Carbachol at 10 μmol/L produced its maximal inhibitory effect. *P<0.01, n−5. C, To investigate the inhibition of AC activity by Ca^2+, we examined cAMP production in membranes from the hearts of WT and AC5KO at increasing Ca^2+ concentrations in the presence of ISO. ISO-stimulated AC activity was inhibited more in WT than in AC5KO. […].
# Hearts were dissected from the mice and membrane preparations were prepared as described previously. Protein concentration was measured by the method of Bradford using bovine serum albumin as a standard. AC activity was measured as described previously. AC activity was linear within the incubation time up to 30 min. In order to harvest hearts for tissue cAMP content measurements, mice were allowed to acclimate to the surroundings in the laboratory for an hour before sacrifice. Freshly isolated hearts were briefly immersed in liquid nitrogen. The tissue was homogenized in ice-cold 6% percholic acid, and cAMP was extracted as described before. The concentration of cAMP was determined with an RIA kit (PerkinElmer Life Sciences, Boston, Mass., USA).
# Hearts were dissected from the mice, and membrane preparations were prepared as described previously. Protein concentration was measured by the Bradford method using bovine serum albumin as a standard. AC activity was measured as described previously. AC activity was linear within the incubation time up to 30 min. For the study of Ca 2+ inhibition, the membranes were treated first with EGTA to extract the endogenous Ca 2+ prior to the assay. Free Ca 2+ concentrations were obtained with the use of 200 μmol/L EGTA buffers as described previously. The experiments with Ca 2+ inhibition were conducted in the presence of 100 μmol/L isoproterenol (ISO)+100 μmol/L GTP.
# [5] = tested on: L-type Ca2+ channels; test: Whole-cell patch-clamp of Ca2+ channel currents (ICa) in myocytes; type: cell-based, mouse
# Excerpt: FIG. 22: A, Effects of ISO (1 μmol/L) on ICa in WT and AC5KO myoctyes. Traces show currents recorded from a holding potential of −50 mV to indicated potentials in control before (a) and after application of ISO (1 μmol/L) (b). Peak ICa were normalized to the cell capacitance to give current densities (pA/pF) and were plotted as a function of voltage (c). B, Concentration-dependent effects of ISO on ICa measured in myocytes dialyzed with EGTA or BAPTA, and on Ba^2+ currents with EGTA. The relative increase of peak current amplitude was plotted against ISO concentration. The solid lines were best fit to one-to-one binding model. Data are from 8-30 myocytes.
# Whole-cell currents were recorded using patch-clamp techniques. Cell capacitance was measured using voltage ramps of 0.8 V/s from a holding potential of −50 mV. All experiments were performed at room temperature. […] The pipette solution contained (mmol/L): Cs-aspartate, 100; CsCl, 20; MgCl2, 1; MgATP, 2; GTP, 0.5; EGTA, 5 or 1,2-bis (2-aminophenoxy)ethane-N,N,N′,N′-tetraacetic acid (BAPTA), 10 and HEPES, 5 (Ph 7.3). […] Nifedipine (10 μmol/L) was added to block L-type Ca^2+ channel currents. The patch pipette solution contained (mmol/L): potassium aspartate, 110; KCl, 20; MgCl2, 2; ATP, 2; GTP, 0.5; EGTA, 5; HEPES, 5 (pH 7.3).
# Ca^2+ influx through L-type Ca^2+ channels is essential for cardiac contractility, thus basic Ca^2+ channel properties were characterized. Peak inward ICa amplitude (with 5 mmol/L EGTA in the pipette solution), normalized relative to cell capacitance (ICa density), was similar in myocytes isolated from AC5KO (7.1±0.3 pA/pF, n=69) and WT (6.7±0.3 pA/pF, n=55). […] In these experiments myocytes were dialyzed with BAPTA, and peak ICa amplitude, as the function of voltage (I-V relationships) before and after exposure to ISO, was determined. In both groups, ISO increased the current amplitude at all test potentials and also shifted the I-V relationships toward more negative potentials.
# [6] = tested on: WT, hetero and AC5KO mice; test: Rotor-rod test after db-cAMP injection; type: in vivo, mouse
# Description: FIG. 9: Effects of db-cAMP on rotor-rod test. Tests were performed before (pre), 30 minutes after (post), and 48 hours after (next) the injection of db-cAMP to WT, hetero and AC5KO (n=4-7).
# The locomotor activity of intact animals, AC5KO versus WT was examined (FIG. 5). At first glance the animals appeared normal, being neither catatonic nor rigid. […] The mice were studied using a rotor rod test in which mice were placed on a rototating rod and had to make continuous adjustment in balance in order to remain upright. The time that the mice spent on the accelerating rotor rod without falling was measured. The rod increased from 3 rpm to 30 rpm during each 5 min. trial. […] There was no significant difference between WT and Hetero at the 1st through 4th trial. At the 5th trial, there was a small but signiifcant decrease in their performance in Hetero.
# Motor function may be improved by the administration of cAMP analogues.
smiles,measurement,setting,value
C=CCN1C[C@H](C(=O)N(CCCN(C)C)C(=O)NCC)C[C@@H]2c3cccc4[nH]cc(c34)C[C@H]21 [Cabergoline],locomotor activity,[1],no significant effect on locomotor activity in both WT and AC5KO
same,rotarod performance,[2]; AC5KO,improved rotarod performance selectively in AC5KO
same,rotarod performance,[2]; WT,essentially had no effect on WT
same,pole test performance at the lower dose,[3]; 0.2 mg/kg,dramatic improvement
same,pole test performance,[3]; subcutaneous,improved pole test performance
"CC(C)NCC(O)c1ccc(O)c(O)c1 (stereo not shown) [ISO, isoproterenol]",increase of AC activity,[4]; AC5KO heart membranes,64±4 pmol/15 min/mg
same,increase of AC activity,[4]; WT heart membranes,78±6 pmol/15 min/mg
same,maximum response of the Ca2+ channel (relative increase of peak current),"[5]; AC5KO myocytes, all three conditions (EGTA, BAPTA, Ba2+)",~1.5 fold
same,maximum response of the Ca2+ channel (relative increase of peak current),[5]; WT myocytes dialyzed with EGTA,~1.7 fold
same,maximum response of the Ca2+ channel (relative increase of peak current),"[5]; WT myocytes, BAPTA or Ba2+",~2.4 fold
CCCC(=O)Nc1ncnc2c1ncn2[C@@H]1O[C@@H]2COP(=O)(O)O[C@H]2[C@H]1OC(=O)CCC [db-cAMP],improvement of time on the rod,"[6]; AC5KO, 30 minutes after injection",two-fold increase
same,rotor rod performance 48 hours after injection,"[6]; AC5KO, 48 hours after injection",dropped to the basal level
same,"improvement of time on the rod, increase","[6]; hetero and WT, 30 minutes after injection",25-30%
